Experimental data taken from ChEMBL document CHEMBL1201862, “PubChem BioAssay data set” (2004).
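Tested at 5 concentrations; 48 h exposure; 96-well plates; endpoints linearly interpolated, else capped at highest concentration. GI50 is the concentration that inhibits growth by half.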 Active and inactive are the calls of the source. Rule as the data show it: active = GI50 up to about 1.1 µM and inactive = higher.

Tests used:
Assay in all cases: NCI anticancer screen, dose series, 48 h
786-0 = tested on: 786-0
A498 = tested on: A498
A549 = tested on: A549
ACHN = tested on: ACHN
CAKI-1 = tested on: CAKI-1
CCRF-CEM = tested on: CCRF-CEM
COLO 205 = tested on: COLO 205
DU-145 = tested on: DU-145
EKVX = tested on: EKVX
HCC 2998 = tested on: HCC 2998
HCT-116 = tested on: HCT-116
HCT-15 = tested on: HCT-15
HL-60 = tested on: HL-60
HOP-62 = tested on: HOP-62
HT-29 = tested on: HT-29
IGROV-1 = tested on: IGROV-1
K562 = tested on: K562
KM12 = tested on: KM12
LOX IMVI = tested on: LOX IMVI
M14 = tested on: M14
MCF7 = tested on: MCF7
MDA-MB-231 = tested on: MDA-MB-231
MDA-MB-435 = tested on: MDA-MB-435
MDA-N = tested on: MDA-N
MOLT-4 = tested on: MOLT-4
Malme-3M = tested on: Malme-3M
NCI-H226 = tested on: NCI-H226
NCI-H23 = tested on: NCI-H23
NCI-H460 = tested on: NCI-H460
NCI-H522 = tested on: NCI-H522
NCI/ADR-RES = tested on: NCI/ADR-RES
OVCAR-3 = tested on: OVCAR-3
OVCAR-4 = tested on: OVCAR-4
OVCAR-5 = tested on: OVCAR-5
OVCAR-8 = tested on: OVCAR-8
PC-3 = tested on: PC-3
RPMI-8226 = tested on: RPMI-8226
RXF 393 = tested on: RXF 393
SF-268 = tested on: SF-268
SF-295 = tested on: SF-295
SF-539 = tested on: SF-539
SK-MEL-28 = tested on: SK-MEL-28
SK-MEL-2 = tested on: SK-MEL-2
SK-MEL-5 = tested on: SK-MEL-5
SK-OV-3 = tested on: SK-OV-3
SN12C = tested on: SN12C
SNB-19 = tested on: SNB-19
SNB-75 = tested on: SNB-75
SR = tested on: SR
SW-620 = tested on: SW-620
T47D = tested on: T47D
TK-10 = tested on: TK-10
U-251 = tested on: U-251
UACC-257 = tested on: UACC-257
UACC-62 = tested on: UACC-62
UO-31 = tested on: UO-31
HOP-92 = tested on: HOP-92
Hs-578T = tested on: Hs-578T

For `C1CCC2C(C1)CCCC2NC1=NCCO1` (configuration not stated), the GI50 (786-0) was > 100 µM (inactive), the GI50 (A498) was > 100 µM (inactive) and the GI50 (A549) was > 100 µM (inactive). For the same compound, the GI50 (ACHN) was > 100 µM (inactive), the GI50 (CAKI-1) was > 100 µM (inactive) and the GI50 (CCRF-CEM) was > 100 µM (inactive). The GI50 (COLO 205) was > 100 µM (inactive), the GI50 (DU-145) was > 100 µM (inactive) and the GI50 (EKVX) was > 100 µM (inactive). For the same compound, the GI50 (HCC 2998) was 72.9 µM (inactive), the GI50 (HCT-116) was > 100 µM (inactive) and the GI50 (HCT-15) was greater than 100 µM. The GI50 (HL-60) was > 100 µM (inactive), the GI50 (HOP-62) was > 100 µM (inactive) and the GI50 (HT-29) was 35.7 µM (inactive). The GI50 (IGROV-1) was > 100 µM (inactive), the GI50 (K562) was > 100 µM (inactive) and the GI50 (KM12) was > 100 µM (inactive). For the same compound, the GI50 (LOX IMVI) was > 100 µM (inactive), the GI50 (M14) was 40 µM (inactive) and the GI50 (MCF7) was 69.2 µM (inactive). The GI50 (MDA-MB-231) was > 100 µM (inactive), the GI50 (MDA-MB-435) was > 100 µM (inactive) and the GI50 (MDA-N) was > 100 µM (inactive). The GI50 (MOLT-4) was > 100 µM (inactive), the GI50 (Malme-3M) was > 100 µM (inactive) and the GI50 (NCI-H226) was > 100 µM (inactive). The GI50 (NCI-H23) was > 100 µM (inactive), the GI50 (NCI-H460) was > 100 µM (inactive) and the GI50 (NCI-H522) was > 100 µM (inactive). For the same compound, the GI50 (NCI/ADR-RES) was > 100 µM (inactive), the GI50 (OVCAR-3) was > 100 µM (inactive) and the GI50 (OVCAR-4) was > 100 µM (inactive). The GI50 (OVCAR-5) was > 100 µM (inactive), the GI50 (OVCAR-8) was > 100 µM (inactive) and the GI50 (PC-3) was 93.5 µM (inactive). The GI50 (RPMI-8226) was 92.5 µM (inactive), the GI50 (RXF 393) was 86.7 µM (inactive) and the GI50 (SF-268) was > 100 µM (inactive). The GI50 (SF-295) was > 100 µM (inactive), the GI50 (SF-539) was > 100 µM (inactive) and the GI50 (SK-MEL-28) was 76 µM (inactive). The GI50 (SK-MEL-2) was > 100 µM (inactive), the GI50 (SK-MEL-5) was 70 µM (inactive) and the GI50 (SK-OV-3) was > 100 µM (inactive). The GI50 (SN12C) was > 100 µM (inactive), the GI50 (SNB-19) was > 100 µM (inactive) and the GI50 (SNB-75) was 72.8 µM (inactive). The GI50 (SR) was 45 µM (inactive), the GI50 (SW-620) was > 100 µM (inactive) and the GI50 (T47D) was > 100 µM (inactive). The GI50 (TK-10) was > 100 µM (inactive), the GI50 (U-251) was > 100 µM (inactive) and the GI50 (UACC-257) was 69.3 µM (inactive). The GI50 (UACC-62) was > 100 µM (inactive) and the GI50 (UO-31) was > 100 µM (inactive).
In the case of `CC#Cc1ccc(-c2ccccc2)s1`, the GI50 (786-0) is reported as > 100 µM (inactive), the GI50 (A498) is reported as > 100 µM (inactive) and the GI50 (A549) is reported as > 100 µM (inactive). For the same compound, the GI50 (ACHN) was > 100 µM (inactive), the GI50 (CAKI-1) was > 100 µM (inactive) and the GI50 (CCRF-CEM) was > 100 µM (inactive). For the same compound, the GI50 (COLO 205) was > 100 µM (inactive), the GI50 (DU-145) was > 100 µM (inactive) and the GI50 (EKVX) was > 100 µM (inactive). The GI50 (HCT-116) was > 100 µM (inactive), the GI50 (HCT-15) was greater than 100 µM and the GI50 (HL-60) was > 100 µM (inactive). The GI50 (HOP-92) was > 100 µM (inactive), the GI50 (HT-29) was > 100 µM (inactive) and the GI50 (Hs-578T) was > 100 µM (inactive). For the same compound, the GI50 (IGROV-1) was > 100 µM (inactive), the GI50 (KM12) was > 100 µM (inactive) and the GI50 (LOX IMVI) was > 100 µM (inactive). For the same compound, the GI50 (M14) was > 100 µM (inactive), the GI50 (MCF7) was > 100 µM (inactive) and the GI50 (MDA-MB-231) was > 100 µM (inactive). For the same compound, the GI50 (MDA-MB-435) was > 100 µM (inactive), the GI50 (MDA-N) was > 100 µM (inactive) and the GI50 (MOLT-4) was > 100 µM (inactive). For the same compound, the GI50 (NCI-H226) was > 100 µM (inactive), the GI50 (NCI-H23) was 68.9 µM (inactive) and the GI50 (NCI-H460) was > 100 µM (inactive). For the same compound, the GI50 (NCI-H522) was > 100 µM (inactive), the GI50 (NCI/ADR-RES) was > 100 µM (inactive) and the GI50 (OVCAR-3) was > 100 µM (inactive). For the same compound, the GI50 (OVCAR-4) was > 100 µM (inactive), the GI50 (OVCAR-5) was > 100 µM (inactive) and the GI50 (OVCAR-8) was > 100 µM (inactive). The GI50 (PC-3) was > 100 µM (inactive), the GI50 (RXF 393) was > 100 µM (inactive) and the GI50 (SF-268) was > 100 µM (inactive). For the same compound, the GI50 (SF-295) was > 100 µM (inactive), the GI50 (SF-539) was > 100 µM (inactive) and the GI50 (SK-MEL-28) was > 100 µM (inactive). The GI50 (SK-MEL-2) was > 100 µM (inactive), the GI50 (SK-MEL-5) was > 100 µM (inactive) and the GI50 (SN12C) was > 100 µM (inactive). The GI50 (SNB-19) was > 100 µM (inactive), the GI50 (SNB-75) was > 100 µM (inactive) and the GI50 (SR) was > 100 µM (inactive). For the same compound, the GI50 (SW-620) was > 100 µM (inactive), the GI50 (TK-10) was > 100 µM (inactive) and the GI50 (U-251) was > 100 µM (inactive). For the same compound, the GI50 (UACC-257) was > 100 µM (inactive), the GI50 (UACC-62) was > 100 µM (inactive) and the GI50 (UO-31) was > 100 µM (inactive).
